Data on 66 compounds can be found in a melting point compilation (Tetko et al.; mined from patent text by program, amines drawn as free bases though some values may be those of a salt).

Broadly, the melting point is the temperature, or range, at which the solid turns liquid.

In turn, `CC1(C)OCCC2C(C3(O)CCSC3)C(=O)N21` (stereo unspecified) came in with a melting point of 113 to 115 °C.

Take `O=C(c1ccccc1F)c1cc2c(c(Cl)c1Cl)OC(C(=O)O)C2` (stereo unspecified): the melting point lay within 180 to 181 °C.

Turning to `O=C(O)COc1cc(Cl)ccc1C(=O)NCc1ccc2c(c1)OCO2`, the melting point lay in the range of 208 to 209 °C.

Consider `O=c1c(O)c(C#Cc2ccccc2)oc2ccccc12`, for which the melting point was 153 to 154 °C.

As to `O=c1ccc(-c2ccc([N+](=O)[O-])c(C(F)(F)F)c2)n[nH]1`, the melting point is 238 to 241 °C.

On to `COC(=O)c1cc(CO)ccc1O`, for which the melting point was in the range of 66 to 67 °C.

`Oc1cncc(Oc2ccccc2)c1`: the melting point amounted to 107 °C.

As for `CCn1c(=O)c2[nH]c(C(F)=Cc3ccccc3)nc2n(CC)c1=O`, the melting point was over 280 °C.

The compound `COC(=O)c1cc(N)c(Oc2ccccc2)c(N)c1` had a melting point of 140 to 142 °C.

For `CCCCCCSc1ccc(SCCCCCC)c(C(=O)O)n1`, the melting point was 40 to 42 °C.

With `CC(C)NC(=O)N1CCc2cc(S(=O)(=O)N3CC(c4ccccc4)NC3=O)ccc21` (stereo unspecified), the melting point fell in the range of 120 to 122 °C.

In turn, `Cc1oc2cc(N)ccc2c(=O)c1C` came in with a melting point of 224 to 226 °C.

Compound `CC(=O)N1CCN(Cc2cnc(-c3cc4c(C)ccc(N(C)S(=O)(=O)c5cccs5)c4[nH]3)s2)CC1` yielded a melting point of 171 to 172 °C.

As to `CC(C)(C)c1ccccc1N1CCN(C(=O)C2CCC(=O)N2CC(=O)O)CC1` (stereo unspecified), the melting point came to 273 °C.

As for `CC(C)[C@H](NC(=O)OCc1csc(N2CCOCC2)n1)C(=O)N[C@@H](Cc1ccccc1)C[C@H](O)[C@H](Cc1ccccc1)NC(=O)OCc1cncs1`, the melting point was 169 to 170 °C.

In turn, `CC1(C)Cc2cc(N)c3c(c2C(c2ccccc2)=N1)CC(C)(C)O3` came in with a melting point of 158 to 162 °C.

`Nc1c(-c2csc(-c3ccncc3)n2)c(=O)[nH]c2ccccc12` gave a melting point of over 250 °C.

In turn, `COC(=O)CCc1cccc(Cl)c1C(=O)CCCNC(C)=O` returned a melting point of 51 to 52 °C.

Regarding `Cc1c(-c2ccc(C(C)C)cc2)oc2c(C(=O)O)cccc2c1=O`, the melting point fell in the range of 216 to 220 °C.

In the case of `COC(=O)c1sccc1S(=O)(=O)NC(=O)Nc1nc(OC)c2cc(C)oc2n1`, the melting point lay within 194 to 196 °C.

For the compound `c1ccc(-n2c3c(c4ccccc42)CCNCC3)cc1`, the melting point fell in the range of 174 to 180 °C.

As for `COC1c2c(c(C)nn2-c2ccccn2)C(=O)CC1(C)C` (stereo unspecified), the melting point was in the range of 86 to 89 °C.

Consider `CCCCN(CCCC)c1ccc(C=CC2=C(OC)C(=CC=CC3=C(C#N)C(=C(C#N)C#N)OC3(C)C)CC(C)(C)C2)c(OC)c1`, for which the melting point is 244 to 246 °C.

As for `CC1(C)OC[C@H]([C@@H]2CNC(=O)C2)O1`, the melting point lay in the range of 84 to 86 °C.

For `CCN(c1ccc(Cl)cc1[N+](=O)[O-])S(=O)(=O)c1ccc(C)cc1`, the melting point lay in the range of 132 to 134 °C.

In turn, `O=C(O)c1ccc2ccccn2c1=O` yielded a melting point of 235 to 240 °C.

`O=C(O)c1c(O)cccc1Cc1cccs1`: the melting point was in the range of 155 to 158 °C.

Turning to `O=C(NCC(F)(F)F)C1CC(=O)N(Cc2ccccc2)C1` (stereo unspecified), the melting point was 110 to 112 °C.

`COC(=O)CC1=CCN(C)c2ccc(Cl)cc21`: the melting point is 99 to 101 °C.

On to `Cc1ccc(C2c3c(C)cc(C)c(C)c3OC2(C)C)cc1` (stereo unspecified), for which the melting point is 117 to 118 °C.

For `Cc1nc2sccn2c1-c1ccc(C#N)cc1`, the melting point lay within 88 to 91 °C.

In turn, `CCc1cc2c(s1)-c1ccccc1C(CC)N2S(=O)(=O)c1ccc(O)cc1` (stereo unspecified) yielded a melting point of 119 to 122 °C.

Take `Nc1ccc([N+](=O)[O-])cc1I`: the melting point lay in the range of 90 to 95 °C.

`COc1cc(-c2ccc(=O)[nH]n2)ccc1OC(F)F` yielded a melting point of 170 °C.

In turn, `CCC1(CC(=O)O)CCC(c2ccccc2)c2c1n(C)c1cc(OCc3ccc4ccccc4n3)ccc21` (stereo unspecified) registered a melting point of 185 to 191 °C.

With `N#CC(C#N)=C(NCCN1CCCCC1)N1CCC(CN2CCCCC2)CC1`, the melting point was 78 to 80 °C.

For the compound `Nc1ncnc2c1c(-c1cccc(O)c1)cn2-c1cccc(OCCCn2ccnc2)c1`, the melting point was in the range of 120 to 122 °C.

Consider `CCCOC(=O)c1cn(CC)c2nc(N3CCNCC3)ncc2c1=O`, for which the melting point turned out to be 152 °C.

Regarding `COc1cc(OC)cc(-c2ncn(-c3ccc(C(F)(F)F)cc3)c2-c2ccc(N(C)C)cc2)c1`, the melting point lay in the range of 84 to 84.5 °C.

For the compound `N#Cc1ccc2nc(C(O)(Cn3cncn3)c3ccc(F)cc3F)sc2c1` (stereo unspecified), the melting point lay within 170 to 172 °C.

Compound `CCNc1c(C)c(C)c2c(c1C)CC(C)(CN1CCC(c3ccccc3)CC1)O2` (stereo unspecified) displayed a melting point of 84 to 86 °C.

Turning to `O=C(O)C1=Cc2cc(Cl)c(Cl)c(Cl)c2OC1C(F)(F)F` (stereo unspecified), the melting point fell in the range of 222 to 225 °C.

Compound `CCCCCC1CCc2c(c(F)c(F)c3oc(C4CCC(CCC)CC4)cc23)O1` (stereo unspecified) yielded a melting point of 101 °C.

With `N#CCCSN1C(=O)COCC1=O`, the melting point was 121 to 122 °C.

On to `CCCCCCNC(=O)c1ccc(N2N=C(CCC)C(=CNc3ccccc3CC)C2=O)cc1`, for which the melting point was found to be 46.7 °C.

`CCOC(=O)/C=C(\C)Cl` had a melting point of 58 to 60 °C.

For the compound `COc1nc2cc([N+](=O)[O-])c(C)c(C(=O)Nc3ccccc3)c2nc1OC`, the melting point lay in the range of 238 to 240 °C.

For `CC1(NC2=NS(=O)(=O)c3sc(Cl)cc3N2)CCCCC1`, the melting point was in the range of 218 to 219 °C.

On to `COc1ccc([C@@H]2Sc3cc(Oc4ccccc4)ccc3NC(=O)[C@@H]2O)cc1`, for which the melting point lay in the range of 181 to 183 °C.

As to `C=CCOP(=O)(OCC=C)C(N)=O`, the melting point was in the range of 91 to 94 °C.

`CCOC(=O)c1c(C(F)(F)F)nc(C(F)F)c(C(=O)O)c1NC1CC1` gave a melting point of 120 to 122 °C.

For `O=C(Nc1ccc(N2CCN(C(=O)C(F)(F)F)CC2)cc1)C(F)(F)F`, the melting point was in the range of 193 to 194 °C.

In the case of `COc1ccc(N2CCN(n3c(C)n[nH]c3=O)CC2)cc1`, the melting point was determined as 264 °C.

`Cn1nc(C#N)c2ccccc21` registered a melting point of 73 °C.

Turning to `COc1ccc(-c2cc3ccccc3[nH]2)cc1NCc1ccc(O)c([N+](=O)[O-])c1`, the melting point was 165 to 166 °C.

On to `O=c1[nH]c2ncc(-c3cccc(-c4nc[nH]n4)c3)nc2n1CC1CCCCC1`, for which the melting point was 305 to 307 °C.

Compound `COc1c(Cl)c(-c2ccc(C(C)C)cc2)cc2oc(=O)c(C)c(C)c12` showed a melting point of 168 °C.

As to `COC(=O)Nc1ccc(OC(=O)OC)cc1I`, the melting point stood at 106 °C.

`CC(=O)Nc1c(C(=O)c2ccc(O)c(O)c2)[nH]c2cc(Cl)ccc12` displayed a melting point of 193 to 200 °C.

In turn, `Clc1ccc(NN=Cc2cccs2)cc1` registered a melting point of 137 °C.

In turn, `CCC(O)(CC(N)=O)c1ccc(Br)cc1` (stereo unspecified) returned a melting point of 118 to 119 °C.

In turn, `CCN(CC)c1ccc(C(=O)OC)nc1` registered a melting point of 52 to 53.5 °C.

`CN(C)C(=O)c1ccc(C(=O)CS(=O)(=O)C(c2ccc(Cl)cc2)c2ccc(Cl)cc2)s1` gave a melting point of 192 to 194 °C.

`CC(C)(C)c1cc(C(C(=O)O)c2ccc(O)c(C(C)(C)C)c2)ccc1O` yielded a melting point of 173 °C.

On to `CC(CN(C)C)CN1c2ccccc2OCOc2ccc(Cl)cc21` (single isomer, unassigned; (-)), for which the melting point fell in the range of 92 to 95 °C.

On to `O=c1c2ccccc2cc(Cl)c2ccccc12`, for which the melting point was in the range of 118 to 121 °C.
